Assay results: article PMC9181926, “Synthesis and Antiproliferative Activity of Novel Dehydroabietic Acid-Chalcone Hybrids” (Molecules, 2022)
Several values for one entry are separate records, joined by “and”; a condition that tells them apart may be missing. Equal entries are not always repeated.

Assays:
Format in all cases: cell-based, human
MDA-MB-231 cells = test: Antiproliferation assay (cell counting, 48 h) in MDA-MB-231 breast cancer cells; conditions: for Selectivity Index for MDA-MB-231: FB IC50 relative to MDA-MB-231 IC50; for IC50: MDA-MB-231 cells, 48 h incubation, cell counting
Description: (§1) Regarding the different characteristics of the used breast cancer cell lines, we can notice that MDA-MB-231 and Hs578T are triple negative.
(§2) Primary skin normal fibroblasts were kindly provided by Prof. Emer.

MCF-7 cells = test: Antiproliferation assay (cell counting, 48 h) in MCF-7 breast cancer cells; conditions: for Selectivity Index for MCF-7: FB IC50 relative to MCF-7 IC50; for IC50: MCF-7 cells, 48 h incubation, cell counting
Description: as §1, §2

Hs578T cells = test: Antiproliferation assay (cell counting, 48 h) in Hs578T breast cancer cells; conditions: for Selectivity Index for Hs578T: FB IC50 relative to Hs578T IC50; for IC50: Hs578T cells, 48 h incubation, cell counting
Description: as §1, §2

[1] = tested on: normal primary fibroblasts (FB); test: cells; conditions: for IC50: normal primary human fibroblasts, 48 h incubation, cell counting
Description: as §2

| Compound | Selectivity Index for MDA-MB-231 (MDA-MB-231 cells) | IC50 (MDA-MB-231 cells; Homo sapiens) | Selectivity Index for MCF-7 (MCF-7 cells) | IC50 (MCF-7 cells; Homo sapiens, MCF7) | Selectivity Index for Hs578T (Hs578T cells) | IC50 (Hs578T cells; Homo sapiens, Hs-578T) | IC50 ([1]; Fibroblast) | times less toxic than 5-FU [1] | IC50 (MDA-MB-231 cells) | IC50 (MCF-7 cells) | IC50 (Hs578T cells) | IC50 [1] |
| --- | --- | --- | --- | --- | --- | --- | --- | --- | --- | --- | --- | --- |
| O=c1[nH]cc(F)c(=O)[nH]1 [Compound 5-FU, 5-fluorouracil, reference compound] | 0.49 | 19.2 ± 0.39 µM | 1.76 | 5.37 ± 1.16 µM | 1.28 | 7.38 ± 2.49 µM | 9.43 ± 0.8 µM | – | – | – | – | – |
| COC(=O)[C@]1(C)CCC[C@]2(C)c3cc(O)c(C(C)=O)cc3CCC12 (stereo partly drawn) [Compound 28] | – | 115 ± 40.1 µM | – | 207 ± 7.28 µM | – | 136 ± 2.47 µM | – | – | – | – | – | – |
| COC(=O)[C@]1(C)CCC[C@]2(C)c3cc(OC)c(C(=O)/C=C/c4cccnc4)cc3CCC12 (stereo partly drawn) [Compound 32, (1R,4aS)-methyl 6-methoxy-1,4a-dimethyl-7-((E)-3-(pyridin-3-yl)acryloyl)-1,2,3,4,4a, 9,10,10a-octahydrophenanthrene-1-carboxylate] | – | > 75 µM | – | > 75 µM | – | > 75 µM | – | – | – | – | – | – |
| COC(=O)[C@]1(C)CCC[C@]2(C)c3cc(O)c(C(=O)/C=C/c4ccncc4)cc3CCC12 (stereo partly drawn) [Compound 35, (1R,4aS)-methyl 6-hydroxy-1,4a-dimethyl-7-((E)-3-(pyridin-4-yl)acryloyl)-1,2,3,4,4a, 9,10,10a-octahydrophenanthrene-1-carboxylate] | 0.91 | 37.1 ± 1.82 µM | 3.42 | 9.9 ± 0.05 µM | 3.89 | 8.69 ± 0.55 µM | 33.8 ± 6.63 µM | – | – | – | – | – |
| COC(=O)[C@]1(C)CCC[C@]2(C)c3cc(O)c(C(=O)/C=C/c4ccc5ccccc5n4)cc3CCC12 (stereo partly drawn) [Compound 38, (1R,4aS)-methyl 6-hydroxy-1,4a-dimethyl-7-((E)-3-(quinolin-2-yl)acryloyl)-1,2,3,4,4a, 9,10,10a-octahydrophenanthrene-1-carboxylate] | 2.20 | 73 ± 2.31 µM | 22.7 and 22.75 | 7.06 ± 1.71 µM | – | > 75 µM | 161 ± 13.1 µM | 12.9 times | – | – | – | – |
| COC(=O)[C@]1(C)CCC[C@]2(C)c3cc(O)c(C(=O)/C=C/c4cnc5ccccc5c4)cc3CCC12 (stereo partly drawn) [Compound 39, (1R,4aS)-methyl 6-hydroxy-1,4a-dimethyl-7-((E)-3-(quinolin-3-yl)acryloyl)-1,2,3,4,4a, 9,10,10a-octahydrophenanthrene-1-carboxylate] | – | > 75 µM | 2.86 | 11.5 ± 1.02 µM | 2.09 | 15.7 ± 2.74 µM | 32.9 ± 2.27 µM | – | – | – | – | – |
| COC(=O)[C@]1(C)CCC[C@]2(C)c3cc(O)c(C(=O)/C=C/c4ccnc5ccccc45)cc3CCC12 (stereo partly drawn) [Compound 40, (1R,4aS)-methyl 6-hydroxy-1,4a-dimethyl-7-((E)-3-(quinolin-4-yl)acryloyl)-1,2,3,4,4a, 9,10,10a-octahydrophenanthrene-1-carboxylate] | – | > 75 µM | – | > 75 µM | – | > 75 µM | 92.1 ± 5.47 µM | – | – | – | – | – |
| COC(=O)[C@]1(C)CCC[C@]2(C)c3cc(O)c(C(=O)/C=C/c4ccsc4)cc3CCC12 (stereo partly drawn) [Compound 44, (1R,4aS)-methyl 6-hydroxy-1,4a-dimethyl-7-((E)-3-(thiophen-3-yl)acryloyl)-1,2,3,4,4a,9,10,10a-octahydrophenanthrene-1-carboxylate] | 1.75 | 25.2 ± 0.84 µM | 12.76 | 3.45 ± 0.36 µM | 2.05 | 21.5 ± 1.2 µM | 44 ± 1.84 µM | – | – | – | – | – |
| COC(=O)[C@]1(C)CCC[C@]2(C)c3cc(O)c(C(=O)/C=C/c4ccc(Br)s4)cc3CCC12 (stereo partly drawn) [Compound 45, (1R,4aS)-methyl 7-((E)-3-(5-bromothiophen-2-yl)acryloyl)-6-hydroxy-1,4a-dimethyl-1,2,3,4,4a,9,10,10a-octahydrophenanthrene-1-carboxylate] | – | > 75 µM | – | 29.9 ± 5.26 µM | – | > 75 µM | – | – | – | – | – | – |
| COC(=O)[C@]1(C)CCC[C@]2(C)c3cc(O)c(C(=O)/C=C/c4c[nH]c5ccccc45)cc3CCC12 (stereo partly drawn) [Compound 46, (1R,4aS)-methyl 7-((E)-3-(1H-indol-3-yl)acryloyl)-6-hydroxy-1,4a-dimethyl-1,2,3,4,4a,9,10,10a-octahydrophenanthrene-1-carboxylate] | – | > 75 µM | – | > 75 µM | – | > 75 µM | – | – | – | – | – | – |
| COC(=O)[C@]1(C)CCC[C@]2(C)c3cc(O)c(C(=O)/C=C/c4csc5ccccc45)cc3CCC12 (stereo partly drawn) [Compound 47, (1R,4aS)-methyl 7-((E)-3-(benzo[b]thiophen-3-yl)acryloyl)-6-hydroxy-1,4a-dimethyl-1,2,3,4,4a,9,10,10a-octahydrophenanthrene-1-carboxylate] | – | 40.4 ± 0.67 µM | – | 12.5 ± 8.43 µM | – | > 75 µM | – | – | – | – | – | – |
| COC(=O)[C@]1(C)CCC[C@]2(C)c3cc(O)c(/C=C/C(=O)c4ccccn4)cc3CCC12 (stereo partly drawn) [Compound 49, (1R,4aS)-methyl 6-hydroxy-1,4a-dimethyl-7-((E)-3-oxo-3-(pyridin-2-yl)prop-1-en-1-yl)-1,2,3,4,4a,9,10,10a-octahydrophenanthrene-1-carboxylate] | 1.06 | 22.4 ± 0.81 µM | 0.52 | 45.9 ± 1.52 µM | 1.39 | 17.1 ± 2.13 µM | 23.8 ± 1.07 µM | – | – | – | – | – |
| COC(=O)[C@]1(C)CCC[C@]2(C)c3cc(O)c(/C=C/C(=O)c4cnccn4)cc3CCC12 (stereo partly drawn) [Compound 51, (1R,4aS)-methyl 6-hydroxy-1,4a-dimethyl-7-((E)-3-oxo-3-(pyrazin-2-yl)prop-1-en-1-yl)-1,2,3,4,4a,9,10,10a-octahydrophenanthrene-1-carboxylate] | 1.14 | 18 ± 2.78 µM | – | > 75 µM | 0.88 | 23.11 ± 0.04 µM | 20.5 ± 2.46 µM | – | – | – | – | – |
| COC(=O)[C@]1(C)CCC[C@]2(C)c3cc(O)c(/C=C/C(=O)c4ccc(Br)s4)cc3CCC12 (stereo partly drawn) [Compound 53, (1R,4aS)-methyl 7-((E)-3-(5-bromothiophen-2-yl)-3-oxoprop-1-en-1-yl)-6-hydroxy-1,4a-dimthyl-1,2,3,4,4a,9,10,10a-octahydrophenanthrene-1-carboxylate] | – | 17.1 ± 0.41 µM | – | 41.4 ± 1.74 µM | – | 28.4 ± 1.97 µM | – | – | – | – | – | – |
| (1R,4aS)-6-hydroxy-1,4a-dimethyl-7-((E)-3-(naphthalen-2-yl)acryloyl)-1,2,3,4,4a,9,10, 10a-octahydrophenanthrene-1-carboxylic acid [Compound 37] | – | – | – | – | – | – | – | – | > 75 µM | 11.4 ± 1.55 µM | > 75 µM | – |
| (1R,4aS)-methyl 6-hydroxy-1,4a-dimethyl-7-((E)-3-(2,4,5-trifluorophenyl)acryloyl)-1,2,3,4,4a,9,10,10a-octahydrophenanthrene-1-carboxylate [Compound 36] | – | – | – | – | – | – | – | – | > 75 µM | > 75 µM | > 75 µM | – |
| (1R,4aS)-methyl 6-hydroxy-1,4a-dimethyl-7-((E)-3-oxo-3-(pyridin-3-yl)prop-1-en-1-yl)-1,2,3,4,4a,9,10,10a-octahydrophenanthrene-1-carboxylate [Compound 50] | – | – | – | – | – | – | – | – | > 75 µM | > 75 µM | > 75 µM | 192 ± 51.4 µM |
| (1R,4aS)-methyl 7-((E)-3-(1H-pyrrol-3-yl)acryloyl)-6-hydroxy-1,4a-dimethyl-1,2,3,4, 4a,9,10,10a-octahydrophenanthrene-1-carboxylate [Compound 43] | – | – | – | – | – | – | – | – | 29.2 ± 3.26 µM | 4.29 ± 0.29 µM | 16.6 ± 2.83 µM | 33 ± 6.1 µM |
| (1R,4aS)-methyl 7-((E)-3-(2-chloroquinolin-4-yl)acryloyl)-6-hydroxy-1,4a-dimethyl-1,2,3,4, 4a,9,10,10a-octahydrophenanthrene-1-carboxylate [Compound 41] | – | – | – | – | – | – | – | – | 7.12 ± 0.2 µM | 3.99 ± 0.15 µM | 10.3 ± 0.25 µM | 7.96 ± 0.1 µM |
| (1R,4aS)-methyl 7-((E)-3-(2-hydroxyphenyl)-3-oxoprop-1-en-1-yl)-6-methoxy-1,4a-dimethyl-1,2,3,4,4a,9,10,10a-octahydrophenanthrene-1-carboxylate [Compound 31] | – | – | – | – | – | – | – | – | > 75 µM | 23.9 ± 4.47 µM | > 75 µM | – |
| (1R,4aS)-methyl 7-((E)-3-(benzofuran-2-yl)acryloyl)-6-hydroxy-1,4a-dimethyl-1,2,3, 4,4a,9,10, 10a-octahydrophenanthrene-1-carboxylate [Compound 52] | – | – | – | – | – | – | – | – | > 75 µM | > 75 µM | 60.2 ± 6.94 µM | – |
| (E)-1-((4bS,8R)-3-hydroxy-8-methoxy-4b,8-dimethyl-4b,5,6,7,8,8a,9,10-octahydrophenanthren-2-yl)-3-(pyridin-2-yl)prop-2-en-1-one [Compound 34] | – | – | – | – | – | – | – | – | > 75 µM | 21.4 ± 0.6 µM | 28.1 ± 7.76 µM | – |
| (E)-3-(furan-2-yl)-1-((4bS,8R)-3-hydroxy-8-methoxy-4b,8-dimethyl-4b,5,6,7,8,8a,9,10-octahydrophenanthren-2-yl)prop-2-en-1-one [Compound 42] | – | – | – | – | – | – | – | – | > 75 µM | 37 ± 6.89 µM | 43.3 ± 4.32 µM | – |
| Tert-butyl 4-(4-((E)-3-((4bS,8R)-3-methoxy-8-(methoxycarbonyl)-4b,8-dimethyl-4b,5, 6,7,8,8a,9,10-octahydrophenanthren-2-yl)acryloyl)phenyl)piperazine-1-carboxylate [Compound 48] | – | – | – | – | – | – | – | – | > 75 µM | 25.62 ± 0.09 µM | 23.2 ± 2.5 µM | – |
